Earlier results, collected in patent US20210046029A1, “LEVODOPA AND CARBIDOPA INTESTINAL GEL AND METHODS OF USE” (AbbVie Inc., priority 2015, published 2021).

Target: T1, peripheral dopa decarboxylase (Homo sapiens, UniProt P20711)
T1 construct: host or cells: endogenous enzyme of peripheral tissues in vivo
T1 sequence (P20711 1-480): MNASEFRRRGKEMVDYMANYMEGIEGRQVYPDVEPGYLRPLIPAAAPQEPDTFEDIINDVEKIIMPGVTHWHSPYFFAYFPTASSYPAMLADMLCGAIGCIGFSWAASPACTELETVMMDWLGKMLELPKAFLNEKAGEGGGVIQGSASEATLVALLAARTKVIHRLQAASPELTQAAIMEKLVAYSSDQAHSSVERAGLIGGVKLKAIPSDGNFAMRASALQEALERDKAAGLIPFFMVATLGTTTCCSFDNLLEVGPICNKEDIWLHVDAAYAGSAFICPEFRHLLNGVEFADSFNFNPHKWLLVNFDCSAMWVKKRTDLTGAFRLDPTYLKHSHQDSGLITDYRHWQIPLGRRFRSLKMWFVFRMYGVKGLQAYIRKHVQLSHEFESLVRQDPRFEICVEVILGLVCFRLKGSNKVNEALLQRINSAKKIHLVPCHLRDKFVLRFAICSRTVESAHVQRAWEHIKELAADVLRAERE
Conditions: in vivo

For `C[C@@](Cc1ccc(O)c(O)c1)(NN)C(=O)O` [carbidopa, (2S)-3-(3,4-dihydroxy-phenyl)-2-hydrazino-2-methylpropanoic acid], the “Carbidopa dose that saturates peripheral dopa decarboxylase” value is listed as 70-100 mg a day.
